Measured values published in patent publication US20260325542A1, “CANCER TARGETING COMPLEX, AND COMPOSITION COMPRISING SAME FOR PREVENTING OR TREATING CANCER” (EWHA UNIVERSITY - INDUSTRY COLLABORATION FOUNDATION, priority 2023, published 2026).
“Also recorded” adds a separate entry of the source.

Columns and labels:
Bcl-2 [1] = assay: Western blot, Bcl-2 level in 4T1 cells; type: cell-based, mouse; conditions: 0 to 10 μM, 24 hours
Experimental: (§1) Accordingly, Western blot analysis was performed to confirm the anticancer ability by evaluating the presence or absence of degradation of BRD4 and other related proteins (e.g., c-Myc and Bcl-2) when cancer cells were treated with the complex for cancer targeting (ECMal-PROTAC) of example 1. The complex for cancer targeting (ECMal-PROTAC) of example 1 and ARV-771 were prepared as samples.
First, 1×10^5 4T1 cells were dispensed into each well of a 6-well culture plate and cultured for 24 hours at 37° C. and 5% carbon dioxide atmosphere. The cell culture medium was supplemented with various concentrations of ARV-771 (0 to 10 μM) or the complex for cancer targeting (ECMal-PROTAC) of example 1 (0 to 10 μM), and cultured at 37° C. for 24 hours. After the culture was completed, the cells were washed 3 times with PBS, and lysed with a lysis buffer containing 1% […]. Cell debris from the recovered lysate was removed by centrifugation at 12,000 rpm for 25 minutes. After recovering the supernatant, the protein amount was measured using a BCA kit. The supernatant was loaded onto a 10% sodium dodecyl sulfate-polyacrylamide gel. Electrophoresis (SDS-PAGE) was performed, followed by blotting onto a polyvinylidene difluoride (PVDF) membrane. […] The immunoreactive bands on the PVDF membrane were analyzed through an ECL (enhanced chemiluminescence) system.

liver tissue = assay: TUNEL analysis of liver tissue; type: in vivo, mouse; conditions: excised after 15 days
[2] = Body weight and systemic side effects; type: in vivo, mouse; conditions: 10 mg/kg, i.v., once every 3 days for 15 days
Experimental: (§2) The control group was administered saline (10 mg/kg) once every 3 days for 15 days through the tail vein (total 4 administrations). The comparison group was administered ARV-771 (10 mg/kg) once every 3 days for 15 days through the tail vein (total 4 administrations). The example group was administered ECMal-PROTAC 10 mg/kg (wquiv. to ARV-771) of example 1 once every 3 days for 15 days through the tail vein (total 4 administrations).
Tumor size and body weight were measured every two days for the control group, the comparison group, and the example group.

Bcl-2 [3] = assay: Western blot of excised cancer tissue, Bcl-2; type: in vivo, mouse
Experimental: as §2

BRD4 = target: T1, BRD4 (Mus musculus, UniProt Q9ESU6); assay: Western blot, BRD4 degradation in 4T1 cells; type: cell-based; conditions: 24 hours
T1 construct: Western blot after PROTAC (ARV-771 release, VHL recruiting)
Experimental: as §1
First, 1×10^5 4T1 cells were dispensed into each well of a 6-well culture plate and cultured for 24 hours at 37° C. and 5% carbon dioxide atmosphere. The cell culture medium was supplemented with various concentrations of ARV-771 (0 to 10 μM) or the complex for cancer targeting (ECMal-PROTAC) of example 1 (0 to 10 μM), and cultured at 37° C. for 24 hours. After the culture was completed, the cells were washed 3 times with PBS, and lysed with a lysis buffer containing 1% […]. Cell debris from the recovered lysate was removed by centrifugation at 12,000 rpm for 25 minutes. After recovering the supernatant, the protein amount was measured using a BCA kit. The supernatant was loaded onto a 10% sodium dodecyl sulfate-polyacrylamide gel. Electrophoresis (SDS-PAGE) was performed, followed by blotting onto a polyvinylidene difluoride (PVDF) membrane. After blotting, the PVDF membrane was treated with 5% BSA-containing tris buffered saline containing 0.1% Tween 20 (TBS-T) for 2 hours to suppress the non-specific binding of IgG (immunoglobulin G). It was immediately exposed to a rabbit anti-mouse primary antibody (1,000:1). After treating at 4° C. for 24 hours, the PVDF membrane was washed 3 times with TBS-T and further incubated with an HRP-conjugated mouse anti-rabbit IgG antibody at room temperature for 1 hour. The immunoreactive bands on the PVDF membrane were analyzed through an ECL (enhanced chemiluminescence) system.

4T1 cells = assay: CCK-8 assay, toxicity on cancer cells; type: cell-based, mouse; conditions: CCK-8, 48 hours
Experimental: The toxicity of ARV-771 and ECMal-PROTAC on cancer cells was analyzed by the CCK-8 (cell counting kit-8) assay. 4T1 cells were dispensed into a 96-well culture plate at 3×10^3 cells per well. They were cultured for 24 hours at 37° C. and 5% carbon dioxide atmosphere. The cells were treated with different concentrations of ARV-771 (0.01 to 100 μM), the complex for cancer targeting (ECMal-PROTAC) of example 1 (0.01 to 100 μM), and the complex for cancer targeting (Mal-PROTAC) of example 2 (0.01 to 100 μM) separately, and cultured for 48 hours. After exposing each well to 10% CCK-8-containing culture media for 30 minutes, the viability of 4T1 cells treated with ARV-771 or 4T1 cells treated with ECMal-PROTAC or Mal-PROTAC was analyzed with a microplate reader. The change in cell viability according to the concentration of ARV-771 or ECMal-PROTAC or Mal-PROTAC was calculated using GraphPad Prism 8 software (GraphPad Software, San Diego, CA, USA) by fitting the IC50 (haf-maximal inhibitory concentration) value.

[4] = target: T2, BSA (bovine serum albumin) (Bos taurus, UniProt P02769); assay: In vitro binding of ECMal-PROTAC to albumin (thiol-maleimide reaction), RP-HPLC; conditions: BSA 200 μM, ECMal-PROTAC 140 μM, 1:1 volume ratio
T2 construct: free Cys34 thiol reacts with maleimide
T2 sequence (P02769 25-607): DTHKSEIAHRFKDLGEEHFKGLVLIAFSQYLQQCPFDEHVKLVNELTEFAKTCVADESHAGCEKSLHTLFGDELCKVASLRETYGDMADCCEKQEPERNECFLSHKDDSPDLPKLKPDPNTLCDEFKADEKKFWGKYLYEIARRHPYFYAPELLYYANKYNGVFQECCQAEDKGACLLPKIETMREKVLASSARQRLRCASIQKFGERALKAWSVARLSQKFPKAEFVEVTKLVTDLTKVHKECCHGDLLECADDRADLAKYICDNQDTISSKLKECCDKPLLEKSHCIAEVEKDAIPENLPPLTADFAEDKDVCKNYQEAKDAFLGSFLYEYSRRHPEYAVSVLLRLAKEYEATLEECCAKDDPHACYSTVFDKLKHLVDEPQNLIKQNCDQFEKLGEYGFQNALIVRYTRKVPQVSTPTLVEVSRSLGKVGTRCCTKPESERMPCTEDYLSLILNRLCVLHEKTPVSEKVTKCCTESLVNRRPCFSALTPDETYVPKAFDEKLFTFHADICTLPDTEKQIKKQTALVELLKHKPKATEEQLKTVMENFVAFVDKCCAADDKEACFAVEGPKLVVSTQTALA
Experimental: The binding rate of ECMal-PROTAC from example 1 and albumin was confirmed through RP-HPLC. Specifically, a BSA solution (200 μM) diluted with PBS was co-incubated by mixing it with an ECMal-PROTAC aqueous solution (140 μM) of example 1 at a 1:1 volume ratio. The culture was collected at incubation times of 0 minutes, 5 minutes, 30 minutes, and 60 minutes. It was quenched with mercaptoethanol, and HPLC spectra for each sample were acquired through concentration gradient of the eluent (ACN/H2O, 20/80 to 80/20 (v/v), 30 minutes).
To verify the albumin binding ability of the complex for cancer targeting (ECMal-PROTAC) of example 1, the mixture of BSA and the complex for cancer targeting (ECMal-PROTAC) was analyzed by LC-MS spectrum, and compared with the LC-MS spectrum of free BSA.
FIG. 4 is the HPLC spectrum of a mixture of BSA and the complex for cancer targeting (ECMal-PROTAC). According to this, it can be seen that BSA and the complex for cancer targeting (ECMal-PROTAC) rapidly bind through a thiol-maleimide click chemical reaction. To confirm the albumin binding ability of the complex for cancer targeting (ECMal-PROTAC) of example 1, bovine serum albumin (BSA), which has a structure similar to human serum albumin (HSA), was used for analysis.
At this time, the HPLC spectra were also analyzed for a co-incubation of ARV-771 (140 μM) and BSA solution (200 μM) mixed at a 1:1 volume ratio as a comparative example, and for the ECMal-PROTAC solution and BSA solution alone without any treatment of example 1.
From the HPLC results for the BSA and complex for cancer targeting (ECMal-PROTAC) mixture in Experimental Example 1 and the thiol-blocked BSA and complex for cancer targeting (ECMal-PROTAC) mixture in Experimental Example 2, the reduction in the HPLC peak area associated with the complex for cancer targeting (ECMal-PROTAC) was quantified.

c-Myc = assay: Western blot of excised cancer tissue, c-Myc; type: in vivo, mouse
Experimental: as §2

[5] = Western blot, vs ARV-771 group (so in the source)

In the case of `Cc1ncsc1-c1ccc([C@H](C)NC(=O)[C@@H]2C[C@@H](OC(=O)CCCCn3nnc4c3CCC3C(CC4)C3COC(=O)NCCOCCOCCNC(=O)CCN3C(=O)C=CC3=O)CN2C(=O)[C@@H](NC(=O)COCCCOCCNC(=O)C[C@@H]2N=C(c3ccc(Cl)cc3)c3c(sc(C)c3C)-n3c(C)nnc32)C(C)(C)C)cc1` (stereo partly shown) [ECMal-PROTAC], the Bcl-2 level (Bcl-2 [1]) is reported as “reduces the levels; also recorded: reduced expression”, the “apoptosis rate in liver tissue vs control (TUNEL)” value (liver tissue) is reported as “no significant difference in the apoptosis rate” and the systemic side effects [2] is reported as “did not show serious systemic side effects”. For the same molecule, the weight loss [2] was “no significant weight loss was observed”, the “Bcl-2 level in cancer tissue vs control” value (Bcl-2 [3]; Western blot, 10 mg/kg) was “much lower levels” and the “Bcl-2 level in cancer tissue, example group vs comparison group” value (Bcl-2 [3]; [5]) was “no significant difference”. For the same molecule, the “relative expression level of Bcl-2, fold lower than control group” value (Bcl-2 [3]; cancer tissue, FIG. 32) was 2.3 times, the “degradation of overexpressed BRD4 protein” value (BRD4; 0 to 10 μM) was “degrades the overexpressed BRD4 protein in a concentration-dependent manner; also recorded: induce BRD4 deficiency” and the DC50 (BRD4; Western blot, read-out: DC50 (half-maximal degradation concentration), BRD4) was 1.81 µM. For the same molecule, the “IC50 compared to native ARV-771” value (4T1 cells) was “slight increase in IC50 compared to native ARV-771”, the IC50 (4T1 cells; Mus musculus, 4T1, FIGS. 15A and 15B, read-out: IC50 against cancer cells) was 7.78 µM and the “completion of thiol-maleimide reaction with BSA within 3 minutes” value ([4]; within 3 minutes) was “more than 75%”. The “completion of thiol-maleimide reaction with BSA within 10 minutes” value ([4]; within 10 minutes) was 100%, the “c-Myc level in cancer tissue vs control” value (c-Myc; Western blot, 10 mg/kg) was “much lower levels” and the “c-Myc level in cancer tissue, example group vs comparison group” value (c-Myc; [5]) was “no significant difference”. For the same molecule, the “relative expression level of c-Myc, fold lower than control group” value (c-Myc; cancer tissue, FIG. 32) was 2.2 times.
